Reference: patent US10016382B2, “Method for decreasing skeletal muscle damage and/or oxidative stress in mammals” (LONZA INC., priority 2014, dated 2018)

Assay: Body composition by GE Prodigy DEXA scan, Example 1
Assay type: in vivo, dog
Details: for % Fat, Mean / BMC, Mean / Lean Mass, Mean / Total Mass, Mean: Table 14; for BMC-Change / Lean Mass-Change / Total Mass-Change / BMC-Final / BMC-Initial / Lean Mass-Final / Lean Mass-Initial / Total Mass-Final / Total Mass-Initial: Table 20, mean ± SEM; for BMC-Change / Lean Mass-Change / Total Mass-Change: beginning to completion of study
Description: Forty Labrador Retrievers were divided into two equal groups of twenty (11 males, 9 females) based on gender, body weight (“BW”), genetics, and lean mass and fed a low L-carnitine basal diet for a 90 day feeding period. The experimental dogs were fed the low L-carnitine basal for 10 days prior to the start of the study. Twenty of the Labs received 250 mg/day of L-carnitine (batch D22312) and 3.75 g of sugar and twenty of the Labs received 4 g/d of sugar. The dogs were scanned with a GE Prodigy DEXA system immediately prior to beginning of the study and the determined lean mass was utilized as a key component for helping assort the dogs equally between the control and L-carnitine group. A serum sample was obtained from each dog to determine a baseline value for blood biomarkers that were used to evaluate muscle damage and antioxidant status. The L-carnitine and control performance dogs were put through a weekly running program consisting of running sprint type shorter runs of higher intensity twice weekly (1200 yds/session increasing to 2400 yds/session over 10 wk period) and running endurance longer runs one time per wk (increasing from 5 miles/session to 10 miles per session over a 10 wk period). Each performance dog also wore the Actical activity monitor during the last endurance run. The dogs were put through a 15 mile run that included mud, water, tall grass, and swimming. The dogs were timed when they completed the course. The dogs were encouraged by kennel staff that rode along in a 4 wheel all terrain type vehicle during all of the endurance runs. […] Immediately following the 15 mile endurance run, each dog was placed in a kennel and evaluated for recovery time for body temperature (every 15 minutes for 2 hr) and heart rate (every 2 minutes for 14 minutes). Twenty four hours after test dogs ran the last 15 endurance run, post-run serum samples were taken to evaluate biomarkers for muscle damage and antioxidant status. Each test dog was also scanned with the GE Prodigy DEXA to determine body composition change that occurred during the course of the 13 wk study. Body Scans: Each dog was scanned for body composition with a GE Prodigy Pro Fan beam instrument during the week prior to the beginning of the 90 day study and the first working day following the last endurance run. Body composition values were determined for % lean mass, % fat mass, and % bone ash for each dog. The difference in body composition was determined by comparing the beginning scan and last scan for each test dog. The final scans were completed 24 hr post run.

## C[N+](C)(C)C[C@H](O)CC(=O)[O-] [L-carnitine]
Ex.1, 250 mg/d, DEXA, initial vs final, either group
  Lean mass over the study: No increase in lean mass
Ex.1, 250 mg/d, females, beginning to end of study, vs 8.9% control females (p=0.22)
  Increase in % fat mass: 4.2%
Ex.1, 250 mg/d, females, over 90 day study, unpaired t-test (Table 20), vs 9% control females (p=0.30)
  Increase in fat: 5.8%
Ex.1, 250 mg/d, females, vs 11.1 lbs control (p=0.29)
  Fat mass at the end of the study: 8.9 lbs
F, Final
  BMC Least Sq Mean: 820.2 g
  Fat Least Sq Mean: 8.892 lbs
  Fat Percentage Least Sq Mean: 16.32
  Lean Mass Least Sq Mean: 45.62 lbs
  Total Mass Least Sq Mean: 54.51 lbs
F, Initial
  BMC Least Sq Mean: 766.5 g
  Fat Least Sq Mean: 5.631 lbs
  Fat Percentage Least Sq Mean: 11.03
  Lean Mass Least Sq Mean: 45.83 lbs
  Total Mass Least Sq Mean: 51.14 lbs
Final
  BMC Least Sq Mean: 861.6 g
  Fat Least Sq Mean: 8.558 lbs
  Fat Percentage Least Sq Mean: 14.52
  Lean Mass Least Sq Mean: 49.83 lbs
  Total Mass Least Sq Mean: 58.39 lbs
Initial
  BMC Least Sq Mean: 784.2 g
  Fat Least Sq Mean: 5.779 lbs
  Fat Percentage Least Sq Mean: 10.31
  Lean Mass Least Sq Mean: 49.87 lbs
  Total Mass Least Sq Mean: 55.49 lbs
M, Final
  BMC Least Sq Mean: 903 g
  Fat Least Sq Mean: 8.225 lbs
  Fat Percentage Least Sq Mean: 12.73
  Lean Mass Least Sq Mean: 54.04 lbs
  Total Mass Least Sq Mean: 62.27 lbs
M, Initial
  BMC Least Sq Mean: 801.8 g
  Fat Least Sq Mean: 5.927 lbs
  Fat Percentage Least Sq Mean: 9.582
  Lean Mass Least Sq Mean: 53.9 lbs
  Total Mass Least Sq Mean: 59.83 lbs
Sex F, Final
  % Fat, Mean: 16.3%
  BMC, Mean: 820 g
  Lean Mass, Mean: 45.6 lb
  Total Mass, Mean: 54.5 lb
Sex F, Initial
  % Fat, Mean: 12.1%
  BMC, Mean: 764 g
  Lean Mass, Mean: 44.7 lb
  Total Mass, Mean: 50.8 lb
Sex M, Final
  % Fat, Mean: 12.7%
  BMC, Mean: 903 g
  Lean Mass, Mean: 54.0 lb
  Total Mass, Mean: 62.3 lb
Sex M, Initial
  % Fat, Mean: 9.6%
  BMC, Mean: 802 g
  Lean Mass, Mean: 53.9 lb
  Total Mass, Mean: 59.8 lb
All dogs, Final
  % Fat, Mean: 14.3%
  BMC, Mean: 866 g
  Lean Mass, Mean: 50.3 lb
  Total Mass, Mean: 58.8 lb
All dogs, Initial
  % Fat, Mean: 10.6%
  BMC, Mean: 787 g
  Lean Mass, Mean: 50.3 lb
  Total Mass, Mean: 56.3 lb
All dogs
  BMC-Change: 82 ± 46 n = 20 g
  Lean Mass-Change: 0.1 ± 0.3 n = 20 lb
  Total Mass-Change: 3.4 ± 0.8 n = 20 lb
  BMC-Final: 866 ± 26 n = 20 g
  BMC-Initial: 784 ± 44 n = 20 g
  Lean Mass-Final: 50.3 ± 1.5 n = 20 lb
  Lean Mass-Initial: 50.2 ± 1.5 n = 20 lb
  Total Mass-Final: 58.8 ± 1.7 n = 20 lb
  Total Mass-Initial: 55.3 ± 1.7 n = 20 lb
♀
  BMC-Change: 58 ± 11 n = 9 g
  Lean Mass-Change: 0 ± 0.5 n = 9 lb
  Total Mass-Change: 4.7 ± 1.5 n = 9 lb
  BMC-Final: 820 ± 19 n = 9 g
  BMC-Initial: 762 ± 18 n = 9 g
  Lean Mass-Final: 45.6 ± 1.7 n = 9 lb
  Lean Mass-Initial: 45.7 ± 1.3 n = 9 lb
  Total Mass-Final: 54.5 ± 1.4 n = 9 lb
  Total Mass-Initial: 49.8 ± 1.1 n = 9 lb
♂
  BMC-Change: 101 ± 84 n = 11 g
  Lean Mass-Change: 0.1 ± 0.5 n = 11 lb
  Total Mass-Change: 2.4 ± 0.6 n = 11 lb
  BMC-Final: 903 ± 42 n = 11 g
  BMC-Initial: 802 ± 80 n = 11 g
  Lean Mass-Final: 54 ± 1.7 n = 11 lb
  Lean Mass-Initial: 53.9 ± 1.8 n = 11 lb
  Total Mass-Final: 62.3 ± 2.6 n = 11 lb
  Total Mass-Initial: 59.8 ± 2.2 n = 11 lb
Treatment * Sex, F
  BMC Least Sq Mean: 766.5 g
  Fat Least Sq Mean: 7.261 lbs
  Fat Percentage Least Sq Mean: 11.03
  Lean Mass Least Sq Mean: 45.83 lbs
  Total Mass Least Sq Mean: 51.14 lbs
Treatment * Sex, M
  BMC Least Sq Mean: 801.8 g
  Fat Least Sq Mean: 7.076 lbs
  Fat Percentage Least Sq Mean: 9.582
  Lean Mass Least Sq Mean: 53.9 lbs
  Total Mass Least Sq Mean: 59.83 lbs
Treatment level, all dogs
  BMC Least Sq Mean: 784.2 g
  Fat Least Sq Mean: 7.169 lbs
  Fat Percentage Least Sq Mean: 10.31
  Lean Mass Least Sq Mean: 49.87 lbs
  Total Mass Least Sq Mean: 55.49 lb
Model term
  Body mineral content (BMC), mixed model Estimate, term Treatment[L-carnitine]: −22.85
  Body mineral content (BMC), mixed model Estimate, term Treatment[L-carnitine] * Sex[F]: 37.64
  Body mineral content (BMC), mixed model Estimate, term Treatment[L-carnitine] * Sex[F] * Time[Final-Initial]: −17.19
  Body mineral content (BMC), mixed model Estimate, term Treatment[L-carnitine] * Time[Final-Initial]: 6.762
  Fat mass, mixed model Estimate, term Treatment[L-carnitine]: −0.2546
  Fat mass, mixed model Estimate, term Treatment[L-carnitine] * Sex[F]: −0.1764
  Fat mass, mixed model Estimate, term Treatment[L-carnitine] * Sex[F] * Time[Initial]: 0.331
  Fat mass, mixed model Estimate, term Treatment[L-carnitine] * Time[Initial]: 0.3408
  Fat percentage, mixed model Estimate, term Treatment[L-carnitine]: 0.1573
  Fat percentage, mixed model Estimate, term Treatment[L-carnitine] * Sex[F]: 0.281
  Fat percentage, mixed model Estimate, term Treatment[L-carnitine] * Sex[F] * Time[Final-Initial]: −0.9515
  Fat percentage, mixed model Estimate, term Treatment[L-carnitine] * Time[Final-Initial]: −0.8868
  Lean mass, mixed model Estimate, term Treatment[L-carnitine]: −0.3966
  Lean mass, mixed model Estimate, term Treatment[L-carnitine] * Sex[F]: 0.618
  Lean mass, mixed model Estimate, term Treatment[L-carnitine] * Sex[F] * Time[Final-Initial]: 0.1808
  Lean mass, mixed model Estimate, term Treatment[L-carnitine] * Time[Final-Initial]: −0.234
  Total Body Mass, mixed model Estimate, term Treatment[L-carnitine]: −0.3536
  Total Body Mass, mixed model Estimate, term Treatment[L-carnitine] * Sex[F]: 0.6569
  Total Body Mass, mixed model Estimate, term Treatment[L-carnitine] * Sex[F] * Time[Final-Initial]: −0.3655
  Total Body Mass, mixed model Estimate, term Treatment[L-carnitine] * Time[Final-Initial]: −0.8724
